Results published in publication PMC9227096, “Design, Synthesis, and In Vitro, In Silico and In Cellulo Evaluation of New Pyrimidine and Pyridine Amide and Carbamate Derivatives as Multi-Functional Cholinesterase Inhibitors” (Pharmaceuticals, 2022).
Read-outs that look alike come from different tables or passages of the source.

Assays:
[1] = target: T1, Electrophorus electricus AChE (EeAChE) (Electrophorus electricus, UniProt O42275); test: Ellman's spectrophotometric method, percent inhibition of EeAChE (zero time and after 1 h incubation); type: biochemical
T1 construct: purchased Sigma-Aldrich (Milan, Italy)
Procedure: (§1) Regarding the synthesized compounds enzymatic inhibition studies were carried out on Electrophorus electricus AChE (EeAChE) and equine BChE (eqBChE), according to Ellman’s spectrophotometric method.
(§2) All other chemical and biological reagents and solvents used were of the highest analytical, commercially available grade. The water, utilized for the preparation of the phosphate buffer and of the solutions of compounds, was distilled and filtered on nylon membrane filters with 0.2 μm pore size with the Millipore® Filtration apparatus before each use. Micropipettes Labmate (BRAND Dig. 10–100 μL; Dig. 100–1000 μL; Dig. 0.1–2 μL) and Transferpette (HIGH TECH LAB LM200: 20–200 μL; LM5000: 1000–5000 μL) were used to collect the samples. The assays were carried out by double beam UV–Vis Lambda 40 Perkin Elmer spectrophotometer, using optical polystyrene cuvettes (10 × 10 × 45 mm, 340–800 nm optical transparency), each measure was repeated at least in triplicate. […] Vivaspin® 2 Sartorius, with a membrane of 3000 MWCO (molecular weight cutoff) consisting of polyethersulfone (PES), cellulose triacetate (CTA) and hydrosart, was used for the ultrafiltration procedures. An ALC PK110 bench-top centrifuge was used for centrifugation. The spectrophotometric method of Ellman, with minor modifications, was used to evaluate the inhibition of cholinesterase enzymes. […] EeAChE and eqBChE were periodically tested to evaluate the effective enzymatic activity.
(§3) An amount of 3.0 mL of a solution in 0.1 M phosphate buffer (pH = 7.4) containing DTNB (0.25 mM) and EeAChE (0.083 UmL^−1) or eqBChE (0.083 UmL^−1) were placed in a polystyrene cuvette of 1.0 cm path length; 1 µL of a solution in DMSO of the tested compound was added to obtain in cuvette concentration range 9 µM–0.09 µM. With this solution the blank was made.
(§4) Each experiment was repeated at least in triplicate.
(§5) The cuvettes were prepared consecutively at intervals of 3 min to allow equal incubation times.

equine BChE (eqBChE) = target: T2, equine BChE (eqBChE) (Equus caballus, UniProt P81908); test: Ellman's spectrophotometric method, percent inhibition of eqBChE (zero time and after 1 h incubation); type: biochemical; conditions: read-out: % Inhibition vs. eqBChE ± SD; for inhibition at 9 µM: [I] 9 µM
T2 construct: purchased Sigma-Aldrich (Milan, Italy)
Procedure: as §1, §2, §3, §4, §5

tau protein = target: T3, tau protein (Homo sapiens, UniProt P10636); test: Inhibition of tau aggregation in intact E. coli cells, thioflavin-S staining; type: cell-based, Escherichia coli; conditions: [I] = 100 µM, E. coli cells overexpressing tau
T3 construct: expressed in transfected cells; host or cells: E. coli BL21 (DE3) with pTARA (T7 RNA polymerase under PBAD) and pRKT42
Procedure: For compounds 12, 14 and 18, the inhibitory activity against Aβ42 and tau aggregation was evaluated. The anti-aggregating effect of tested compounds was monitored by a cell-based assay in intact Escherichia coli cells that overexpress either Aβ42 peptide or tau protein, which, upon expression, form insoluble inclusion bodies that were stained with thioflavin-S [42]. The percentages of inhibition towards Aβ42 and tau aggregation were determined at an inhibitor concentration of 100 µM and the obtained results are reported in Table 6. In general, these compounds show a weak anti-aggregating activity; among these, the pyridine carbamate 18 is the best inhibitor of aggregation of both Aβ42 and tau.
E. coli BL21 (DE3) competent cells were transformed with pTARA containing the RNA-polymerase gene of T7 phage (T7RP), under the control of the promoter PBAD. E. coli BL21 (DE3), with pTARA competent cells, were transformed with the pRKT42 vector encoding four repeats of the tau protein in two inserts. For overnight culture preparation, 10 mL of the M9 medium containing 0.5% of glucose, 50 μg·mL^−1 of ampicillin, and 12.5 μg·mL^−1 of chloramphenicol was inoculated with a colony of BL21 (DE3) bearing the plasmids to be expressed at 37 °C. […]
Th-S (T1892) and other chemical reagents were purchased from Sigma (St. Louis, MO, USA). […] Th-S fluorescence and absorbance were tracked using a DTX 800 plate reader Multimode Detector equipped with a Multimode Analysis Software (Beckman-Coulter, Indianapolis, IN, USA). […] A filter of 535/25 nm was also used for the absorbance determination. To normalize the Th-S fluorescence as a function of the bacterial concentration, OD600 was obtained using a Shimadzu UV-2401 PC UV–Vis spectrophotometer (Shimadzu, Japan). Note that the fluorescence normalisation was carried out considering 100% of the Th-S fluorescence of the bacterial cells expressing the peptide or protein in the absence of the drug and 0% of the Th-S fluorescence of the bacterial cells not expressing the peptide or protein. […]

[2] = read-out: % Inhibition vs. EeAChE ± SD, [I] 9 µM, 0.0833 U/mL enzyme, 100 µM acetylthiocholine
[3] = [I] 900 nM, 0.0833 U/mL enzyme, 100 µM acetylthiocholine
[4] = 0.0833 U/mL enzyme, 100 µM acetylthiocholine

T1 sequence (O42275 24-633): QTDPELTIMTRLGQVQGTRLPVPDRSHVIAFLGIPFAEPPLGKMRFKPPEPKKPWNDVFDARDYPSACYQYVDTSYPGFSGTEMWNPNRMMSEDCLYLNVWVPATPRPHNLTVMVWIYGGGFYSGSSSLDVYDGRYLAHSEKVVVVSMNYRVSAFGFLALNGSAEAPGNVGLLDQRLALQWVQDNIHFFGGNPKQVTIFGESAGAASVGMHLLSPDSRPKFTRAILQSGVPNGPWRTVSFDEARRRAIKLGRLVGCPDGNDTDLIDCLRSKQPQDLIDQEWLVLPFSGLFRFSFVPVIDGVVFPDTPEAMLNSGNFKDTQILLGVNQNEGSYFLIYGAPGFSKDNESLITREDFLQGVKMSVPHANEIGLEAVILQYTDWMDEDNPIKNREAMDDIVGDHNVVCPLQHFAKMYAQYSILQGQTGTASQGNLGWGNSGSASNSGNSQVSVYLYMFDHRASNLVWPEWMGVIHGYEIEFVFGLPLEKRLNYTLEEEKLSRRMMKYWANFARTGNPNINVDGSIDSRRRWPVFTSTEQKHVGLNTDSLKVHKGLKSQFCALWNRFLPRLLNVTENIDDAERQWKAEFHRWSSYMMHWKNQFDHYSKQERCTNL
T2 sequence (P81908 whole entry): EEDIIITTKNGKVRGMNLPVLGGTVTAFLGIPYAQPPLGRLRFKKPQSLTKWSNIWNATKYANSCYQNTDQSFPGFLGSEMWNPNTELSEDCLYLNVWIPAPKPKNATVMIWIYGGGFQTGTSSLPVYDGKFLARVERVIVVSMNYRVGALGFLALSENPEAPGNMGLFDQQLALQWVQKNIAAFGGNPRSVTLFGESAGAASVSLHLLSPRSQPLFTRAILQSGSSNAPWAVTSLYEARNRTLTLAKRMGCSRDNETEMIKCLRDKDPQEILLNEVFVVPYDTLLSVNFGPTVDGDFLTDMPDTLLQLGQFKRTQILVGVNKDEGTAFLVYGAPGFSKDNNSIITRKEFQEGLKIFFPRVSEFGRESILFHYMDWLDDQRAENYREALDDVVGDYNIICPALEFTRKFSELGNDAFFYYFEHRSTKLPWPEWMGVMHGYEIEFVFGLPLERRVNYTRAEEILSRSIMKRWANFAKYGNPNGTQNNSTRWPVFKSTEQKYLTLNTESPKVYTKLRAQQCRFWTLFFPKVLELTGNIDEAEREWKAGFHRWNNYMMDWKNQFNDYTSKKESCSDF
T3 sequence (P10636 1-441 isoform P10636-8): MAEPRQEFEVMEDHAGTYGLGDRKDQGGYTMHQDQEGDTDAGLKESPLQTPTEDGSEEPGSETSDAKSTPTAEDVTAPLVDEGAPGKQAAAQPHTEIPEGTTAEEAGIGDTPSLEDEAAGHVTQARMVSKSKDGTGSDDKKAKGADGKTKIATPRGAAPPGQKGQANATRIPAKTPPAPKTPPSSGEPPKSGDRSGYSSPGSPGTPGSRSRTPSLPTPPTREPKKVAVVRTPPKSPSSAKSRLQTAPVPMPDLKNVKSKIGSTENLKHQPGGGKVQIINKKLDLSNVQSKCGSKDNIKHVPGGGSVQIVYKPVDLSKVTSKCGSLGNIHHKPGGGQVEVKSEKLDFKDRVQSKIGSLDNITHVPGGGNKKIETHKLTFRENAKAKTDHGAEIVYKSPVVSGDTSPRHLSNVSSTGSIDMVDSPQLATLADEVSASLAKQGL

Structure (SMILES) | inhibition at 9 µM ([1]; 1 h, read-out: % Inhibition vs. EeAChE ± SD, [I] = 9 µM, t = 1 h incubation at 25 °C) [%] | inhibition at 0.9 µM (equine BChE (eqBChE); 1 h, [I] = 900 nM, t = 1 h incubation at 25 °C) [%] | inhibition at 100 µM (tau protein) [%] | % Inhibition vs. EeAChE ± SD ([1]; [I] 9 µM, 0.0833 U/mL enzyme, 100 µM acetylthiocholine) [%] | inhibition at 9 µM [1, 2] [%] | inhibition at 0.9 µM (equine BChE (eqBChE); [3]) [%] | inhibition at 9 µM (equine BChE (eqBChE); [4]) [%]
O=C(NCCCCCCNc1ccccn1)Oc1ccccc1 [Compound 18, Phenyl (6-(pyridin-2-ylamino)hexyl)carbamate] | 41.6 ± 0.7 | 79.6 ± 5.3 | 15.7 |  |  |  | 
O=C(NCCCCCCNc1ccccn1)c1ccccc1 [Compound 12, N-(6-(pyridin-2-ylamino)hexyl)benzamide] |  |  | 11 | 34.0 ± 2.1 | 34 | 22 | 81
O=C(Cc1ccc(Oc2ccccc2)cc1)NCCCCCCNc1ccccn1 [Compound 14, 2-(4-phenoxyphenyl)-N-(6-(pyridin-2-ylamino)hexyl)acetamide] |  |  | 10.9 |  | 42.6 ± 1.4 | 45 | 88
